Measured values published in patent US7199285B2, “Modulation of abscisic acid signal transduction in plants” (University of California, San Diego, priority 2000, dated 2007).

Experiments:
[1] = tested on: Arabidopsis thaliana seeds; assay: seed germination on minimum medium with ABA; type: in vivo; details: 0.3 μM ABA
Description: This was carried out using Arabidopsis lines (Columbia background, T3 seeds), which were transformed with a T-DNA (SK1015) (D. Weigel et al., Plant Physiol., 122:1003 (2000)), and plated on minimum medium (0.25×MS) with 0.3 μM ABA. After 4 days at 4° C., seeds were transferred to 28° C., continuous light. After 5 more days, germination was analyzed. Non-germinated seeds were transferred to soil and further analyzed.

guard cells [2] = assay: time-resolved cameleon [Ca2+]cyt imaging of ABA-induced [Ca2+]cyt elevations; type: cell-based, Arabidopsis thaliana
Description: Due to the basal regulation of anion and K^+ channels in abh1 without addition of exogenous ABA, experiments were pursued to analyze whether mechanisms lying further upstream confer ABA hypersensitivity in abh1. […] Therefore we directly investigated whether abh1 modulates ABA-induced [Ca^2+]cyt elevations in time-resolved cameleon [Ca^2+]cyt imaging experiments (G. J. Allen et al, The Plant J., 19:735 (1999)). Stomata were opened by exposing plants for 12 hours to 95% humidity.

abh1 mutant = assay: seed germination, hypocotyl and root growth assays in the presence of hormones; type: in vivo, Arabidopsis thaliana; details: abh1, hormone concentrations from 10 nM to 100 μM
Description: Other hormone signaling mutants were analyzed in control experiments: axr1–3 (auxin insensitive) (C. Lincoln et al., Plant Cell, 2:1071(1990)), ein2-1 (ethylene insensitive) (J. M. Alonso et al., Science, 284:2148 (1999)), gai-1 (GA insensitive) (M. Koornneef et al., Physiol Plant., 65:33 (1985)), era1-2 (ABA hypersensitive) (S. Cutler et al., Science, 273:1239 (1996))), and jar1-1 (JA insensitive) (P. E. Staswick et al., Proc. Natl. Acad. Sci. U.S.A., 89:6837 (1992)).

guard cells [3] = assay: stomatal closure in response to ABA; type: cell-based, Arabidopsis thaliana; details: abh1, stomata opened 12 hours at 95% humidity
Description: ABH1 is expressed in guard cells. To determine whether ABH1 modulates early ABA signal transduction elements, stomatal closure in response to ABA was investigated. Stomata were opened by exposing plants for 12 hours to high humidity (95%). Under these conditions stomatal apertures were similar in wild-type and abh1 (2.03±0.19 μm, wild-type, n=60; 1.92±0.21 μm, abh1, n=60; P>0.38). Stomatal closure in abh1 was ABA hypersensitive compared to wild-type (P<0.001). When stomatal apertures were measured in leaves harvested directly from plants grown under lower humidity (40%), without exogenous ABA addition, stomatal apertures of abh1 were smaller than those of wild-type plants (P<0.001), possibly resulting from a hypersensitive response to endogenous ABA.

Compound | germination ([1]; abh1 mutant seeds) | germination ([1]; wild-type seeds) | cells responding with one [Ca2+]cyt elevation (guard cells [2]; abh1, 0.5 μM ABA) [%] | cells showing multiple repetitive [Ca2+]cyt increases (guard cells [2]; abh1, 0.5 μM ABA) [%] | cells showing no response (guard cells [2]; abh1, 0.5 μM ABA) [%] | guard cells showing [Ca2+]cyt increases (guard cells [2]; abh1, 0.5 μM ABA) [%] | average peak increase of [Ca2+]cyt (guard cells [2]; wild-type, 0.5 μM ABA) [nM] | guard cells showing [Ca2+]cyt increase (typically only one) (guard cells [2]; wild-type, 0.5 μM ABA) [%] | guard cells showing no [Ca2+]cyt increase (guard cells [2]; wild-type, 0.5 μM ABA) [%] | phenotypic response (sensitivity) of abh1 mutant to hormone (abh1 mutant) | stomatal closure sensitivity compared to wild-type (guard cells [3])
CC1=CC(=O)CC(C)(C)[C@@]1(O)/C=C/C(C)=C\C(=O)O [ABA, abscisic acid] | inhibited | allowed germination | 19 | 45 | 36 | 64 | 170 ± 25 | 44 | 56 | showed phenotypic responses only to ABA | hypersensitive
C=C1C[C@]23C[C@@]1(O)CC[C@H]2[C@@]12C=C[C@H](O)[C@@](C)(C(=O)O1)[C@H]2[C@@H]3C(=O)O [GA, gibberellic acid] |  |  |  |  |  |  |  |  |  | slightly reduced sensitivity | 
